# Results: ChEMBL document CHEMBL3046664, “Synthesis in vitro/in vivo evaluation and in silico physicochemical study of prodrug approach for brain targeting of alkylating agent” (Med Chem Res, 2013)
# Legend:
# [1] = Stability of the compound assessed as decomposition at 4 degC after 60 days by UV spectrophotometric analysis; assay type: physicochemical; conditions: read-out: Drug degradation
# [2] = tested on: Blood; assay: Half life in 100% Rattus norvegicus (rat) whole blood assessed as conversion to 1-Benzyl-3-{(bis(2-chloroethyl)amino)carbamoyl}pyridinium bromide at 10 x 10^-4 M by UV-spectrophotometric analysis; assay type: ADME, tissue-based; conditions: 1000 µM
# [3] = Stability of the compound assessed as decomposition at 25 degC after 60 days by UV spectrophotometric analysis; assay type: physicochemical; conditions: read-out: Drug degradation
# [4] = tested on: Blood; assay: Half life in 100% Homo sapiens (human) whole blood assessed as conversion to 1-Benzyl-3-{(bis(2-chloroethyl)amino)carbamoyl}pyridinium bromide at 10 x 10^-4 M by UV-spectrophotometric analysis; assay type: ADME, tissue-based; conditions: 1000 µM
# [5] = tested on: Brain; assay: Half life in Rattus norvegicus (rat) brain homogenate assessed as conversion to 1-Benzyl-3-{(bis(2-chloroethyl)amino)carbamoyl}pyridinium bromide at 6.25 x 10^-4 M by UV-spectrophotometric analysis; assay type: ADME, tissue-based; conditions: 625 µM
# [6] = Half life in silver nitrate solution assessed as conversion to 1-Benzyl-3-{(bis(2-chloroethyl)amino)carbamoyl}pyridinium bromide at 5% after 2 min by UV-Visible spectrophotometric analysis; assay type: physicochemical
# [7] = tested on: Blood; assay: Prodrug conversion in Sprague-Dawley Rattus norvegicus (rat) blood assessed as assessed as 1-(4-Nitrobenzyl-3-{(bis(2-chloroethyl)amino)carbamoyl}pyridinium bromide level at 40 mg/kg, iv measured at 100 min by UV-spectrophotometric analysis; assay type: ADME, organism-based; design: dose 40 mg/kg, route intravenous; conditions: in vivo
# [8] = tested on: Blood; assay: Prodrug conversion in Sprague-Dawley Rattus norvegicus (rat) blood assessed as 1-(4-Nitrobenzyl-3-{(bis(2-chloroethyl)amino)carbamoyl}pyridinium bromide level at 40 mg/kg, iv measured at 150 min by UV-spectrophotometric analysis; assay type: ADME, organism-based; design: dose 40 mg/kg, route intravenous; conditions: in vivo, 2.5 h
# [9] = tested on: Blood; assay: Half life in 100% Homo sapiens (human) whole blood assessed as conversion to 1-(4-Nitrobenzyl-3-{(bis(2-chloroethyl)amino)carbamoyl}pyridinium bromide at 10 x 10^-4 M by UV-spectrophotometric analysis; assay type: ADME, tissue-based; conditions: 1000 µM
# [10] = tested on: Brain; assay: Prodrug conversion in Sprague-Dawley Rattus norvegicus (rat) brain homogenate assessed as 1-(4-Nitrobenzyl-3-{(bis(2-chloroethyl)amino)carbamoyl}pyridinium bromide level at 40 mg/kg, iv measured at 60 min by UV-spectrophotometric analysis; assay type: ADME, organism-based; design: dose 40 mg/kg, route intravenous; conditions: in vivo, 1 h
# [11] = Half life in silver nitrate solution assessed as conversion to1-(4-Nitrobenzyl-3-{(bis(2-chloroethyl)amino)carbamoyl}pyridinium bromide at 5% after 2 min by UV-Visible spectrophotometric analysis; assay type: physicochemical
# [12] = tested on: Brain; assay: Prodrug conversion in Sprague-Dawley Rattus norvegicus (rat) brain homogenate assessed as 1-(4-Nitrobenzyl-3-{(bis(2-chloroethyl)amino)carbamoyl}pyridinium bromide level at 40 mg/kg, iv measured at 100 min by UV-spectrophotometric analysis; assay type: ADME, organism-based; design: dose 40 mg/kg, route intravenous; conditions: in vivo
# [13] = tested on: Blood; assay: Half life in 100% Rattus norvegicus (rat) whole blood assessed as conversion to 1-(4-Nitrobenzyl-3-{(bis(2-chloroethyl)amino)carbamoyl}pyridinium bromide at 10 x 10^-4 M by UV-spectrophotometric analysis; assay type: ADME, tissue-based; conditions: 1000 µM
# [14] = tested on: Brain; assay: Prodrug conversion in Sprague-Dawley Rattus norvegicus (rat) brain homogenate assessed as 1-(4-Nitrobenzyl-3-{(bis(2-chloroethyl)amino)carbamoyl}pyridinium bromide level at 40 mg/kg, iv measured at 15 min by UV-spectrophotometric analysis; assay type: ADME, organism-based; design: dose 40 mg/kg, route intravenous; conditions: in vivo, 0.25 h
# [15] = tested on: Blood; assay: Prodrug conversion in Sprague-Dawley Rattus norvegicus (rat) blood assessed as 1-(4-Nitrobenzyl-3-{(bis(2-chloroethyl)amino)carbamoyl}pyridinium bromide level at 40 mg/kg, iv measured at 30 min by UV-spectrophotometric analysis; assay type: ADME, organism-based; design: dose 40 mg/kg, route intravenous; conditions: in vivo, 0.5 h
# [16] = tested on: Blood; assay: Prodrug conversion in Sprague-Dawley Rattus norvegicus (rat) blood assessed as 1-(4-Nitrobenzyl-3-{(bis(2-chloroethyl)amino)carbamoyl}pyridinium bromide level at 40 mg/kg, iv measured at 15 min by UV-spectrophotometric analysis; assay type: ADME, organism-based; design: dose 40 mg/kg, route intravenous; conditions: in vivo, 0.25 h
# [17] = tested on: Brain; assay: Half life in Rattus norvegicus (rat) brain homogenate assessed as conversion to 1-(4-Nitrobenzyl-3-{(bis(2-chloroethyl)amino)carbamoyl}pyridinium bromide at 6.25 x 10^-4 M by UV-spectrophotometric analysis; assay type: ADME, tissue-based; conditions: 625 µM
# [18] = tested on: Brain; assay: Prodrug conversion in Sprague-Dawley Rattus norvegicus (rat) brain homogenate assessed as 1-(4-Nitrobenzyl-3-{(bis(2-chloroethyl)amino)carbamoyl}pyridinium bromide level at 40 mg/kg, iv measured at 30 min by UV-spectrophotometric analysis; assay type: ADME, organism-based; design: dose 40 mg/kg, route intravenous; conditions: in vivo, 0.5 h
# [19] = tested on: Blood; assay: Prodrug conversion in Sprague-Dawley Rattus norvegicus (rat) blood assessed as 1-(4-Nitrobenzyl-3-{(bis(2-chloroethyl)amino)carbamoyl}pyridinium bromide level at 40 mg/kg, iv measured at 60 min by UV-spectrophotometric analysis; assay type: ADME, organism-based; design: dose 40 mg/kg, route intravenous; conditions: in vivo, 1 h
# [20] = tested on: Brain; assay: Prodrug conversion in Sprague-Dawley Rattus norvegicus (rat) brain homogenate assessed as 1-(4-Nitrobenzyl-3-{(bis(2-chloroethyl)amino)carbamoyl}pyridinium bromide level at 40 mg/kg, iv measured at 150 min by UV-spectrophotometric analysis; assay type: ADME, organism-based; design: dose 40 mg/kg, route intravenous; conditions: in vivo, 2.5 h
# [21] = Half life of the compound after 30 min by UV-spectrophotometric analysis in presence of 4-(4-nitrobenzyl)pyridine; assay type: physicochemical
compound,measurement,setting,value
O=C(C1=CN(Cc2ccccc2)C=CC1)N(CCCl)CCCl,degraded at 1440 h,[1],9%
same,t1/2,[2],29 min
same,degraded at 1440 h,[3],18%
same,t1/2,[4],36 min
same,t1/2,[5],25 min
same,t1/2,[6],5 min
O=C(C1=CN(Cc2ccc([N+](=O)[O-])cc2)C=CC1)N(CCCl)CCCl,degraded at 1440 h,[1],3%
same,Drug metabolism,[7],12 µg/mL
same,Drug metabolism,[8],0 µg/mL
same,t1/2,[9],39 min
same,Drug metabolism,[10],17 µg/g
same,degraded at 1440 h,[3],8%
same,t1/2,[11],7 min
same,Drug metabolism,[12],27 µg/g
same,t1/2,[13],34 min
same,Drug metabolism,[14],4 µg/g
same,Drug metabolism,[15],48 µg/mL
same,Drug metabolism,[16],60 µg/mL
same,t1/2,[17],31 min
same,Drug metabolism,[18],9 µg/g
same,Drug metabolism,[19],35 µg/mL
same,Drug metabolism,[20],42 µg/g
O=C(c1ccc[n+](Cc2ccccc2)c1)N(CCCl)CCCl.[Br-],half-life,[21],14.7 min
O=C(c1ccc[n+](Cc2ccc([N+](=O)[O-])cc2)c1)N(CCCl)CCCl.[Br-],half-life,[21],8.4 min
